Data on 11 compounds can be found in patent publication US7981903B2, “2-[2-{phenylamino}-1H-pyrrolo[2,3-D]pyrimidin-4-yl)amino] benzamide derivatives as IGF-1R inhibitors for the treatment of cancer” (GlaxoSmithKline LLC, priority 2007, dated 2011).

One experiment concerns Colo205. The experiment can be described thus: Inhibition of cell proliferation (CellTiter-Glo or InCell analyzer), Colo205. To be noted: Homo sapiens, COLO 205, 72 h / 3 days, values given as IC50 category. It counts as cell-based. In short, it runs like this:
In one
A general note: In ATP-based viability assays light output follows the ATP content of the culture.

The next experiment addresses ALK (Homo sapiens, UniProt Q9UM73). The experiment can be described thus: ALK enzyme assay (HTRF). The note with it: 0.25 nM ALK, 15.0 μM ATP, values given as pIC50 category. It counts as biochemical. In short, it runs like this:
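Isolated ALK phosphorylates a biotinylated tyrosine peptide, 120 min at 20° C; anti-phosphotyrosine Eu-cryptate/streptavidin-XL665 HTRF read after 60 min with EDTA-containing detection mix.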

A further experiment has as its system NCI-H929. Kind of experiment: Inhibition of cell proliferation (CellTiter-Glo or InCell analyzer), NCI-H929. It counts as cell-based. To be noted: Homo sapiens, 72 h / 3 days, values given as IC50 category. In short, it runs like this: In one
The target of experiment [1] is T1, NIH-3T3 cells overexpressing human IGF-1R (Homo sapiens, UniProt P08069).
T1 construct: expressed in transfected cells; host or cells: NIH-3T3 (mouse fibroblasts)
T1 sequence (P08069 31-1367): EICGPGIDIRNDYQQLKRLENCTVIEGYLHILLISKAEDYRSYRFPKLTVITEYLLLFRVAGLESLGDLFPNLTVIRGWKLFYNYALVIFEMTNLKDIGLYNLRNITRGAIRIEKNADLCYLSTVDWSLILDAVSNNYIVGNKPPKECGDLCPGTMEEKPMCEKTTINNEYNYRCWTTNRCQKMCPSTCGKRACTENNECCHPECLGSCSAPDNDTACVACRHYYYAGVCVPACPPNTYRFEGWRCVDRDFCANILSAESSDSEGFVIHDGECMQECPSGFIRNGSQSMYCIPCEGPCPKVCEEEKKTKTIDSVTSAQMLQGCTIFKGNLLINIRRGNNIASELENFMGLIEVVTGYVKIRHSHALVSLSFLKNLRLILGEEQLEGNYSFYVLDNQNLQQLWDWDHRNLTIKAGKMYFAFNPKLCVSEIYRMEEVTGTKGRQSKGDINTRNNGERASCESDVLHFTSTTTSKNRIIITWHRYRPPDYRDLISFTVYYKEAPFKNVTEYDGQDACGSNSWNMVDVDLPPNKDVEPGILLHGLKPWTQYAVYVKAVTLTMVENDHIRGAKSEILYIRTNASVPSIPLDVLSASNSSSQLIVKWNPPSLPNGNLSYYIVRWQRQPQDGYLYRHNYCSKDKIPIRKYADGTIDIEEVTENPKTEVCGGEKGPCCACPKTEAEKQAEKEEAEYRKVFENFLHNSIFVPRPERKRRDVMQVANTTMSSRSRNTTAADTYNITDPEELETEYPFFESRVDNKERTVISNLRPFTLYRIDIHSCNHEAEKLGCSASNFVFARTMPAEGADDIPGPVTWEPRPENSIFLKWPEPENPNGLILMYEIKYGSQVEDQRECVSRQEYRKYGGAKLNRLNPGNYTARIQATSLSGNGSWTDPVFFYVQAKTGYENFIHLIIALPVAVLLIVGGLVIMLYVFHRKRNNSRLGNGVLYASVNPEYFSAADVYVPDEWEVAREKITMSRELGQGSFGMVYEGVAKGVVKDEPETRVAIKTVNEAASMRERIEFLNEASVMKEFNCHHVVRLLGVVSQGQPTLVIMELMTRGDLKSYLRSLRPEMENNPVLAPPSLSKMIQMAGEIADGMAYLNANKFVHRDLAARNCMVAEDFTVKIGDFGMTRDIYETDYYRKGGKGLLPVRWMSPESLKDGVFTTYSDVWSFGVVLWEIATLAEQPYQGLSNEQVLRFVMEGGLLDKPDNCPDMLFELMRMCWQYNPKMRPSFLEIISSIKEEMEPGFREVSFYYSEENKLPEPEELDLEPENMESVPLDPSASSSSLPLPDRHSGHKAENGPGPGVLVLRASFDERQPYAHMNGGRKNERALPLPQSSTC
Kind of experiment: IGF-1R cellular autophosphorylation (DELFIA). It counts as cell-based. In short, it runs like this: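 Receptor autophosphorylation measured by DELFIA, capturing IGF-1R or IRβ and detecting with europium anti-pTyr, reported as percent of IGF-1- or insulin-stimulated signal. Compounds (30 uM to 1.5 nM) added 2 h before ligand, then 15 min stimulation (IGF-1 30 ng/ml or insulin 3 ug/ml).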

Some results are limits rather than exact numbers.

Chain of ALK (Q9UM73 19-1620): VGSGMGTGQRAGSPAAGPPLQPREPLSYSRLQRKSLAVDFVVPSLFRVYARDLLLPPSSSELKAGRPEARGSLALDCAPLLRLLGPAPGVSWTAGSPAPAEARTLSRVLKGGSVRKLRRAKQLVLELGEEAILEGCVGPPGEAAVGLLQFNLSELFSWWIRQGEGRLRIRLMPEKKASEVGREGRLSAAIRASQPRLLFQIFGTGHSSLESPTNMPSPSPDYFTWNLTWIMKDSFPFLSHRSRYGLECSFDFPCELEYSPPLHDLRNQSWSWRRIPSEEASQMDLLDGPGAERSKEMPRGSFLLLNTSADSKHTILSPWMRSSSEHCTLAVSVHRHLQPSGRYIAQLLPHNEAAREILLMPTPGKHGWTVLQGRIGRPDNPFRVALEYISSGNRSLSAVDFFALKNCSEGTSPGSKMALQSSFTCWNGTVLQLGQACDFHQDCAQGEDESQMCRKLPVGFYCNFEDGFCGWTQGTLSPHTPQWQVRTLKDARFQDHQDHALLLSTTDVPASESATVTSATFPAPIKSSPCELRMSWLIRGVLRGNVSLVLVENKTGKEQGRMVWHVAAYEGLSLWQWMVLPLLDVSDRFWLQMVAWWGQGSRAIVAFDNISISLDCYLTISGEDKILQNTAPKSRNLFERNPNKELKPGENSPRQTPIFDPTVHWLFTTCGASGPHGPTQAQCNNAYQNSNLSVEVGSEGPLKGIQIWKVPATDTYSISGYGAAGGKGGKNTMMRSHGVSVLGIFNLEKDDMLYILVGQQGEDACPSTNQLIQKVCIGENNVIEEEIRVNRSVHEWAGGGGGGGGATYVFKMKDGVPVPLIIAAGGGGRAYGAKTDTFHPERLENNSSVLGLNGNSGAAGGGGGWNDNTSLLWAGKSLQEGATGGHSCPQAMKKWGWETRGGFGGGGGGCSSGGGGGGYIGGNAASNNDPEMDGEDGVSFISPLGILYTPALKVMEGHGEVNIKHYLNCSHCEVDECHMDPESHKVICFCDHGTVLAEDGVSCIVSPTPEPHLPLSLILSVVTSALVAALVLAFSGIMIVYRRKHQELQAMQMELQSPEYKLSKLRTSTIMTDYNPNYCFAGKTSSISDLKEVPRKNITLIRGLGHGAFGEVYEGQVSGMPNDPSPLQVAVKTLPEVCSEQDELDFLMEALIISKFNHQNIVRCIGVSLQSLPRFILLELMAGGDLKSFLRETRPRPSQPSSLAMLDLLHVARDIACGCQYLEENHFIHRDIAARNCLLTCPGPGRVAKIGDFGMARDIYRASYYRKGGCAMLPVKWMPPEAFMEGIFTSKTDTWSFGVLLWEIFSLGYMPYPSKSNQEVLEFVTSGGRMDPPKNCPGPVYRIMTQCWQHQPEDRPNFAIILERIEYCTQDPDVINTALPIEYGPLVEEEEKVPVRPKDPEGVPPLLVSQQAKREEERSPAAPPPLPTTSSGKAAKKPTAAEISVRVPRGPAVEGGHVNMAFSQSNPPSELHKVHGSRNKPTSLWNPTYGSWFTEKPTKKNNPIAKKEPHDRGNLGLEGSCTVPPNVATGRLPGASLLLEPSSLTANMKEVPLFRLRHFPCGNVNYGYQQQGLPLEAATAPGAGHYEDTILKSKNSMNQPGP

Consider `CNC(=O)c1c(F)cccc1Nc1nc(Nc2cc3c(cc2OC)CCC(=O)N3)nc2[nH]ccc12` [Example 222, 2-fluoro-N-methyl-6-[(2-{[6-(methyloxy)-2-oxo-1,2,3,4-tetrahydro-7-quinolinyl]amino}-1H-pyrrolo[2,3-d]pyrimidin-4-yl)amino]benzamide], for which the half-maximal inhibitory concentration (IC50) (as a rule, the concentration that inhibits the measured activity by half) was more than 1000 nM in the experiment with Colo205, 5.01 to 200 nM against ALK, 250 to 1000 nM in the experiment with NCI-H929 and more than 500 nM in experiment [1].
For the compound `COc1cc2c(cc1Nc1nc(Nc3cccc(F)c3C(N)=O)c3cc[nH]c3n1)CN(C(=O)CCN1CCN(C(C)C)CC1)CC2` [Example 229, 2-fluoro-6-[(2-{[2-{3-[4-(1-methylethyl)-1-piperazinyl]propanoyl}-6-(methyloxy)-1,2,3,4-tetrahydro-7-isoquinolinyl]amino}-1H-pyrrolo[2,3-d]pyrimidin-4-yl)amino]benzamide], the IC50 is more than 1000 nM in the experiment on Colo205, 5.01 to 200 nM against ALK, 250 to 1000 nM in the experiment on NCI-H929 and more than 500 nM in experiment [1].
The like results for `COc1cc2c(cc1Nc1nc(Nc3cccc(F)c3C(N)=O)c3cc[nH]c3n1)CN(C(=O)CCN(C)C)CC2` [Example 230, 2-[(2-{[2-(N,N-dimethyl-β-alanyl)-6-(methyloxy)-1,2,3,4-tetrahydro-7-isoquinolinyl]amino}-1H-pyrrolo[2,3-d]pyrimidin-4-yl)amino]-6-fluorobenzamide] were, in that order, more than 1000 nM, 5.01 to 200 nM, 250 to 1000 nM and more than 500 nM.
The like results for `COc1cc2c(cc1Nc1nc(Nc3cccc(F)c3C(N)=O)c3cc[nH]c3n1)CN(C(=O)CCN1CCOCC1)CC2` [Example 231, 2-fluoro-6-{[2-({6-(methyloxy)-2-[3-(4-morpholinyl)propanoyl]-1,2,3,4-tetrahydro-7-isoquinolinyl}amino)-1H-pyrrolo[2,3-d]pyrimidin-4-yl]amino}benzamide] were, in that order, more than 1000 nM, 5.01 to 200 nM, 250 to 1000 nM and 100 to 500 nM.
The like results for `COc1cc2c(cc1Nc1nc(Nc3cccc(F)c3C(N)=O)c3cc[nH]c3n1)CN(CCCN(C)C)CC2` [Example 232, 2-[(2-{[2-[3-(dimethylamino)propyl]-6-(methyloxy)-1,2,3,4-tetrahydro-7-isoquinolinyl]amino}-1H-pyrrolo[2,3-d]pyrimidin-4-yl)amino]-6-fluorobenzamide] were, in that order, more than 1000 nM, 1.26 to 3.98 nM, less than 250 nM and more than 500 nM.
For `CNC(=O)c1c(F)cccc1Nc1nc(Nc2cc3c(cc2OC)CCN(C(C)C)C3)nc2[nH]ccc12` [Example 235, 2-fluoro-N-methyl-6-[(2-{[2-(1-methylethyl)-6-(methyloxy)-1,2,3,4-tetrahydro-7-isoquinolinyl]amino}-1H-pyrrolo[2,3-d]pyrimidin-4-yl)amino]benzamide], the IC50 in the experiment with Colo205 was more than 1000 nM; against ALK, 1.26 to 3.98 nM; with NCI-H929 it was less than 250 nM; in experiment [1] it was more than 500 nM.
The corresponding values for `CCC(C)N1CCc2cc(OC)c(Nc3nc(Nc4cccc(F)c4C(=O)NC)c4cc[nH]c4n3)cc2C1` (centres unmarked) [Example 238, 2-fluoro-N-methyl-6-[(2-{[6-(methyloxy)-2-(1-methylpropyl)-1,2,3,4-tetrahydro-7-isoquinolinyl]amino}-1H-pyrrolo[2,3-d]pyrimidin-4-yl)amino]benzamide] are more than 1000 nM, 1.26 to 3.98 nM, 250 to 1000 nM and more than 500 nM.
The like results for `CNC(=O)c1c(F)cccc1Nc1nc(Nc2cc(N(C)C(=O)CN(C)C)ccc2OC)nc2[nH]ccc12` [Example 242, 2-[(2-{[5-[(N,N-dimethylglycyl)(methyl)amino]-2-(methyloxy)phenyl]amino}-1H-pyrrolo[2,3-d]pyrimidin-4-yl)amino]-6-fluoro-N-methylbenzamide] were, in that order, more than 1000 nM, 5.01 to 200 nM, more than 1000 nM and 100 to 500 nM.
The corresponding values for `COc1ccc(NC(=O)CN(C)C)cc1Nc1nc(Nc2cccc(F)c2C(N)=O)c2cc[nH]c2n1` [Example 244, 2-[(2-{[5-[(N,N-dimethylglycyl)amino]-2-(methyloxy)phenyl]amino}-1H-pyrrolo[2,3-d]pyrimidin-4-yl)amino]-6-fluorobenzamide] are less than 250 nM, 0.251 to 1 nM, less than 250 nM and less than 100 nM.
On to `CNC(=O)c1c(F)cccc1Nc1nc(Nc2cc3c(cc2OC)CCN3C(=O)CN(C)C)nc2[nH]cc(C)c12` [Example 258, 2-[(2-{[1-(N,N-dimethylglycyl)-5-(methyloxy)-2,3-dihydro-1H-indol-6-yl]amino}-5-methyl-1H-pyrrolo[2,3-d]pyrimidin-4-yl)amino]-6-fluoro-N-methylbenzamide], for which the IC50 is 250 to 1000 nM in the experiment on Colo205, 0.251 to 1 nM against ALK, 250 to 1000 nM with NCI-H929 and 100 to 500 nM in experiment [1].
On to `COc1cc2c(cc1Nc1nc(Nc3cccc(F)c3C(N)=O)c3cc(C)[nH]c3n1)N(C(=O)CN(C)C)CC2` [Example 262, 2-[(2-{[1-(N,N-dimethylglycyl)-5-(methyloxy)-2,3-dihydro-1H-indol-6-yl]amino}-6-methyl-1H-pyrrolo[2,3-d]pyrimidin-4-yl)amino]-6-fluorobenzamide], for which the IC50 was more than 1000 nM in the experiment on Colo205, 5.01 to 200 nM at ALK, more than 1000 nM with NCI-H929 and 100 to 500 nM in experiment [1].
